One assay addresses T1, human glucagon receptor (Homo sapiens, UniProt P47871).
T1 construct: expressed in transfected cells; host or cells: BHK (baby hamster kidney) cells
Description: Glucagon Binding Assay (III). Conditions: BHK cell membranes, WGA SPA beads, 125I-glucagon; read-out: Glu Bd Assay (III) IC50. The essentials:
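Membranes from BHK cells transfected with the human receptor, prepared at 4 °C, were used in a WGA-bead scintillation proximity binding format. Plates were shaken for 4 hours, left to settle 8–48 hours and then counted. Non-specific binding was defined with 500 nM glucagon.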
T1 sequence (P47871 26-477): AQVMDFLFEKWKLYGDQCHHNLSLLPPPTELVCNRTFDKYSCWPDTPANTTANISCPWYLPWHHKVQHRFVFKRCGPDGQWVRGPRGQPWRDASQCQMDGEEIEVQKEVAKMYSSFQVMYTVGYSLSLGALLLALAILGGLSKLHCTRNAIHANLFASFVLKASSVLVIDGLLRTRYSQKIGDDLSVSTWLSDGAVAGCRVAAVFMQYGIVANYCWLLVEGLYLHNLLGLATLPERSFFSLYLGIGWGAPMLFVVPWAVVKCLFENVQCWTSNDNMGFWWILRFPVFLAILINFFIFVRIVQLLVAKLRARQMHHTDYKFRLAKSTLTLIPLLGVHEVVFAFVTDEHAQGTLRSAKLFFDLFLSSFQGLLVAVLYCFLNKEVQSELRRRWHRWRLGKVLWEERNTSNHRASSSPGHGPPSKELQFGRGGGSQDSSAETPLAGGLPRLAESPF
Usually IC50 stands for the concentration that gives 50% inhibition. In the case of `CCS(=O)(=O)c1cccc(NC(=O)N(Cc2ccc(C(=O)Nc3nn[nH]n3)cc2)c2ccc(C3CCCCC3)cc2)c1` [Example 453, 4-[1-(4-Cyclohexylphenyl)-3-(3-ethylsulfonylphenyl)ureidomethyl]-N-(2H-tetrazol-5-yl)benzamide], the concentration for half-maximal inhibition (IC50) came out at 72 nM. Turning to `CC(C)(C)[C@H]1CC[C@H](N(Cc2ccc(C(=O)Nc3nn[nH]n3)cc2)NC(=O)c2ccc(OC(F)(F)F)cc2)CC1` [Example 380, 4-[N-(trans-4-tert-Butylcyclohexyl)-N′-(4-trifluoromethoxybenzoyl)hydrazinomethyl]-N-(2H-tetrazol-5-yl)benzamide], the IC50 turned out to be 71 nM. On the same count and under the same terms, as for `CCS(=O)(=O)c1cccc(NC(=O)N(Cc2ccc(C(=O)Nc3nn[nH]n3)cc2)c2ccc(OC(F)(F)F)cc2)c1` [Example 452, 4-[3-(3-Ethylsulfonylphenyl)-1-(4-trifluoromethoxyphenyl)ureidomethyl]-N-(2H-tetrazol-5-yl)benzamide], the figure is 1410 nM. Still for that read-out and setting: as for `O=C(O)CCNC(=O)c1ccc(CN(C(=O)c2cc(-c3ccc(Cl)cc3)cs2)c2ccc(C3CCCCC3)cc2)cc1` [Example 560, 3-(4-{[[4-(4-Chlorophenyl)thiophene-2-carbonyl]-(4-cyclohexylphenyl)amino]methyl}benzoylamino)propionic acid], the figure is 1550 nM; as for `COc1cc(NC(=O)N(Cc2ccc(C(=O)Nc3nn[nH]n3)cc2)c2ccc(C3CCCCC3)cc2)cc(C(F)(F)F)c1` [Example 319, 4-[1-(4-Cyclohexylphenyl)-3-(3-methoxy-5-trifluoromethylphenyl)ureidomethyl]-N-(2H-tetrazol-5-yl)benzamide], 18 nM. The same measure, in the same setting: in the case of `CC(C)(C)c1ccc(N(Cc2ccc(C(=O)Nc3nn[nH]n3)cc2)C(=O)Nc2cc(Br)cc(C(F)(F)F)c2)cc1` [Example 263, 4-[3-(3-Bromo-5-trifluoromethylphenyl)-1-(4-tert-butylphenyl)ureidomethyl]-N-(2H-tetrazol-5-yl)benzamide] it was 16 nM; in that of `CCCCC(CC)CN(Cc1ccc(C(=O)NCCC(=O)O)cc1)C(=O)Nc1ccc(Oc2ccccc2)cc1` (stereo not shown) [Example 14, 3-{4-[1-(2-Ethylhexyl)-3-(4-phenoxyphenyl)ureidomethyl]benzoylamino}propionic acid], 184 nM. `CCCC1(CCC)CCC(N(Cc2ccc(C(=O)NCCC(=O)O)cc2)C(=O)Nc2ccc(OC(F)(F)F)cc2)CC1` [Example 88, 3-{4-[1-(4,4-Dipropylcyclohexyl)-3-(4-trifluoromethoxyphenyl)ureidomethyl]benzoylamino}propionic acid]: the IC50 was found to be 137 nM.

`O=C(O)CCNC(=O)c1ccc(CN(C(=O)Nc2ccc(OC(F)(F)F)cc2)c2ccc(Br)cc2)cc1` [Example 430, 3-{4-[1-(4-Bromophenyl)-3-(4-trifluoromethoxyphenyl)ureidomethyl]benzoylamino}propionic acid]: the 50% inhibitory concentration (IC50) turned out to be 1680 nM.

Turning to `O=C(O)CCNC(=O)c1ccc(CN(C(=O)c2cccc(C(F)(F)F)c2)c2ccc(C3CCCCC3)cc2)cc1` [Example 524, 3-(4-{[(4-Cyclohexylphenyl)-(3-trifluoromethylbenzoyl)amino]methyl}benzoylamino)propionic acid], the IC50 came out at 293 nM. Still for that read-out and setting: as for `CCCCC(CC)CN(Cc1ccc(C(=O)NCCC(=O)O)cc1)C(=O)Nc1ccc(C(F)(F)F)cc1` (stereo not shown) [Example 36, 3-{4-[1-(2-Ethylhexyl)-3-(4-trifluoromethylphenyl)ureidomethyl]benzoylamino}propionic acid], the figure is 151 nM; as for `CCCCc1ccc(N(Cc2ccc(C(=O)NCCC(=O)O)cc2)C(=O)Nc2ccc(OC(F)(F)F)cc2)c(C)c1` [Example 440, 3-{4-[1-(4-Butyl-2-methylphenyl)-3-(4-trifluoromethoxyphenyl)ureidomethyl]benzoylamino}propionic acid], 509 nM; as for `CC(C)(C)C1CCC(N(Cc2ccc(C(=O)Nc3nn[nH]n3)cc2)C(=O)c2ccc(OC(F)(F)F)cc2)CC1` (stereo not shown) [Example 489, 4-{[(4-tert-Butylcyclohexyl)-(4-triflourmethoxybenzoyl)amino]methyl}-N-(2H-tetrazol-5-yl)benzamide], 150 nM.

On to `O=C(O)CCNC(=O)c1ccc(CN(C(=O)Nc2ccc(OC(F)(F)F)cc2)c2ccc(N3CCCCC3)cc2)cc1` [Example 434, 3-{4-[1-(4-Piperidin-1-ylphenyl)-3-(4-trifluoromethoxyphenyl)ureidomethyl]benzoylamino}propionic acid], for which the IC50 worked out at 126 nM. Still for that read-out and setting: as for `O=C(O)CCNC(=O)c1ccc(CN(C(=O)c2cc(F)cc(C(F)(F)F)c2)C2CCC3(CCCCC3)CC2)cc1` [Example 618, 3-(4-{[(3-Fluoro-5-trifluoromethylbenzoyl)spiro[5.5]undec-3-yl-amino]methyl}benzoylamino)propionic acid], the figure is 1070 nM; as for `CC(C)(C)[C@H]1CC[C@H](N(Cc2ccc(C(=O)Nc3nn[nH]n3)s2)C(=O)Nc2ccc(OC(F)(F)F)cc2)CC1` [Example 578, 5-[1-(trans-4-tert-Butylcyclohexyl)-3-(4-trifluoromethoxyphenyl)ureidomethyl]thiophene-2-carboxylic acid (2H-tetrazol-5-yl)amide], 226 nM. Same read-out and setting: as for `CC(C)(C)c1ccc(N(Cc2ccc(C(=O)NCCC(=O)O)cc2)C(=O)Oc2ccc(OC(F)(F)F)cc2)cc1` [Example 411, 3-(4-{[(4-tert-Butylphenyl)-(4-trifluoromethoxyphenoxycarbonyl)amino]methyl}benzoylamino)propionic acid], the figure is 704 nM; as for `CC(C)Oc1ccc(C(=O)N(Cc2ccc(C(=O)NCCC(=O)O)cc2)c2ccc(C3CCCCC3)cc2)cc1` [Example 523, 3-(4-{[(4-Cyclohexylphenyl)-(4-isopropoxybenzoyl)amino]methyl}benzoylamino)propionic acid], 2110 nM; as for `O=C(O)CCNC(=O)c1ccc(CN(CC(c2ccccc2)c2ccccc2)C(=O)c2cc3cc(Cl)ccc3o2)cc1` [Example 563, 3-(4-{[(5-Chlorobenzofuran-2-carbonyl)-(2,2-diphenylethyl)amino]methyl}benzoylamino)propionic acid], 407 nM. On the same count and under the same terms, as for `O=C(Nc1nn[nH]n1)c1ccc(CN(C(=O)Nc2cc(C(F)(F)F)cc(C(F)(F)F)c2)c2ccc(C3=CCCCC3)cc2)cc1` [Example 268, 4-[3-(3,5-Bis-trifluoromethylphenyl)-1-(4-cyclohex-1-enylphenyl)ureidomethyl]-N-(2H-tetrazol-5-yl)benzamide], the figure is 21 nM; as for `CCCCC(CC)CN(Cc1ccc(C(=O)NCCC(=O)O)cc1)C(=O)Nc1cccc(C#N)c1` (stereo not shown) [Example 20, 3-{4-[3-(3-Cyanophenyl)-1-(2-ethylhexyl)ureidomethyl]benzoylamino}propionic acid], 2370 nM; as for `O=C(O)CCNC(=O)c1ccc(CN(CCc2ccc(Cl)c(Cl)c2)C(=O)Nc2ccc(OCc3ccccc3)cc2)cc1` [Example 47, 3-{4-[3-(4-Benzyloxyphenyl)-1-[2-(3,4-dichlorophenyl)ethyl]ureidomethyl]benzoylamino}propionic acid], 1100 nM. On to `O=C(Nc1nn[nH]n1)c1ccc(CN(C(=O)NCc2ccccc2-c2ccccc2)c2ccc(C3=CCCCC3)cc2)cc1` [Example 353, 4-[3-Biphenyl-2-ylmethyl-1-(4-cyclohex-1-enylphenyl)ureidomethyl]-N-(2H-tetrazol-5-yl)benzamide], for which the half-maximal inhibitory concentration (IC50) was found to be 22 nM. With `CCC(C)(C)[C@H]1CC[C@H](N(Cc2ccc(C(=O)NCCC(=O)O)cc2)C(=O)Nc2ccc(OC(F)(F)F)cc2)CC1` [Example 78, 3-{4-[1-[4-trans-(1,1-Dimethylpropyl)cyclohexyl]-3-(4-trifluoromethoxyphenyl)ureidomethyl]benzoylamino}propionic acid], the IC50 was 49 nM.

`O=C(Nc1nn[nH]n1)c1ccc(CN(C(=O)/C=C/c2cccc3ccccc23)c2ccc(C3CCCCC3)cc2)cc1` [Example 534, 4-{[(4-Cyclohexylphenyl)-(3-naphthalen-1-ylacryloyl)amino]methyl}-N-(2H-tetrazol-5-yl)benzamide]: the IC50 was determined as 282 nM.

With `CCCCc1ccc(N(Cc2ccc(C(=O)Nc3nn[nH]n3)cc2)C(=O)Nc2ccc(OC(F)(F)F)cc2)cc1` [Example 292, 4-[1-(4-Butylphenyl)-3-(4-trifluoromethoxyphenyl)ureidomethyl]-N-(2H-tetrazol-5-yl)benzamide], the 50% inhibitory concentration (IC50) was 106 nM. As to `O=C(O)CCNC(=O)c1ccc(CN(C(=O)Oc2ccc(Cl)cc2Cl)c2ccc(C3CCCCC3)cc2)cc1` [Example 416, 3-(4-{[(4-Cyclohexylphenyl)-(2,4-dichlorophenoxycarbonyl)amino]methyl}benzoylamino)propionic acid], the IC50 was determined as 634 nM. The same measure, in the same setting: in the case of `CCCCOC(=O)c1ccc(NC(=O)N(Cc2ccc(C(=O)NCCC(=O)O)cc2)C2CCC(C(C)(C)C)CC2)cc1` (stereo not shown) [Example 33, 4-{3-(4-tert-Butylcyclohexyl)-3-[4-(2-carboxyethylcarbamoyl)benzyl]ureido}benzoic acid butyl ester] it was 104 nM.

With `O=C(Nc1nn[nH]n1)c1ccc(CN(C(=O)Nc2ccc(F)c(C(F)(F)F)c2)c2ccc(C3CCCCC3)cc2)cc1` [Example 600, 4-[1-(4-Cyclohexylphenyl)-3-(4-fluoro-3-trifluoromethylihenyl)ureidomethyl]-N-(2H-tetrazol-5-yl)benzamide], the IC50 is 9 nM.

For `O=C(Nc1nn[nH]n1)c1ccc(CN(C(=O)CCOc2ccccc2)c2ccc(C3CCCCC3)cc2)cc1` [Example 533, 4-{[(4-Cyclohexylphenyl)-(3-phenoxypropionyl)amino]methyl}-N-(2H-tetrazol-5-yl)benzamide], the IC50 was found to be 1800 nM.

The same assay, now with this note: Glu Bd Assay (III) IC50 (nM), BHK cell membranes, WGA SPA beads, 125I-glucagon.
On to `CC(C)(C)[C@H]1CC[C@H](N(Cc2ccc(C(=O)NCCC(=O)O)cc2)C(=O)Nc2ccc(OCC3CC3)cc2)CC1` [Example 241, 3-{4-[1-(trans-4-tert-Butylcyclohexyl)-3-(4-cyclopropylmethoxyphenyl)ureidomethyl]benzoylamino}propionic acid], for which the IC50 is 140 nM.

(Values after US6875760B2 (Novo Nordisk A/S, priority 1999, dated 2005).)
